2 molecules from paper PMC6435570, “Zafirlukast Is a Dual Modulator of Human Soluble Epoxide Hydrolase and Peroxisome Proliferator-Activated Receptor γ” (Frontiers in Pharmacology, 2019) can be followed below.

One assay addresses T1, sEH (HEP-G2) (Homo sapiens, UniProt P34913).
T1 construct: 1 μg of total cell homogenate diluted in 100 μl of PBS; endogenous in cells; host or cells: HEP-G2
T1 sequence (P34913 1-555): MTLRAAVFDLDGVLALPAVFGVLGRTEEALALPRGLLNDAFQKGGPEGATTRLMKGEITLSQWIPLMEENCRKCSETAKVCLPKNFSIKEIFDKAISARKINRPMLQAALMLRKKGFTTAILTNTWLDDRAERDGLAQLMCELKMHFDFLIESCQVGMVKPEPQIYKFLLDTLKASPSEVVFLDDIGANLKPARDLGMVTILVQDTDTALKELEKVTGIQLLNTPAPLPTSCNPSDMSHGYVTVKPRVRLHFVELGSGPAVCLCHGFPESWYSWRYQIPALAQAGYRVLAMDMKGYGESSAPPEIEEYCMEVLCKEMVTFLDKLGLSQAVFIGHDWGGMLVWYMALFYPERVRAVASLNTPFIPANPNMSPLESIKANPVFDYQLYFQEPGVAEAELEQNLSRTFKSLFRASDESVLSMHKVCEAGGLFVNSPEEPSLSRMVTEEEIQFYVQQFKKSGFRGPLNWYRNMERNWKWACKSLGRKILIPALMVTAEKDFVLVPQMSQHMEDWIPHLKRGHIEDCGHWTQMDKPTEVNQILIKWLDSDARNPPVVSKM
In words: sEH activity in HEP-G2 cell lysates (14(15)-EET-d11 to DHET-d11, LC-MS/MS). Type of assay: biochemical. Particulars: HEP-G2 cell homogenate, (±)14(15)-EET-d11 substrate, DHET formation by LC-MS/MS.

The target in assay [1] is T2, PPARγ-LBD / CBP-derived peptide (Homo sapiens, UniProt P37231).
T2 construct: 12 nM recombinant PPARγ-LBD fused to N-terminal GFP as FRET acceptor
T2 sequence (P37231 238-503 limits assumed): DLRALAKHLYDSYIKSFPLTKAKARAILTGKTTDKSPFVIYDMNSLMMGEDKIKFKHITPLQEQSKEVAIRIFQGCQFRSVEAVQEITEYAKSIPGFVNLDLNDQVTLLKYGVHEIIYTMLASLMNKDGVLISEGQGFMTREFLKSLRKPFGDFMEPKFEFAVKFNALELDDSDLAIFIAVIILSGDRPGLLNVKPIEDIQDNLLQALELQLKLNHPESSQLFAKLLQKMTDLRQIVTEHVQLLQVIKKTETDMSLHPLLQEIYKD
In words: PPARγ coactivator (CBP) recruitment assay, HT-FRET. It is filed as biochemical. Particulars: for Induction of CBP recruitment by the compound itself: absence of rosiglitazone. An excerpt: Recruitment of coactivator-derived peptides to the PPARγ-LBD was studied by homogeneous time-resolved fluorescence resonance energy transfer (HT-FRET). Terbium cryptate as streptavidin conjugate (Cisbio assays, France) was used as FRET donor. Peptides derived from the coactivator cyclic AMP response element-binding protein (CREB)-binding protein (CBP) [biotin-[…]] encompassing the coactivator consensus motif LxxLL and N-terminal biotin for stable coupling to streptavidin were purchased from Eurogentec GmbH (Cologne, Germany). Solutions containing 12 nM recombinant PPARγ-LBD fused to N-terminal GFP as FRET acceptor and 12 nM FRET donor complex with the CBP-derived peptide as well as 1% DMSO with test compound at varying concentrations or DMSO alone were prepared in HEPES buffer [25 mM HEPES pH 7.5 adjusted with KOH, 150 mM KF, 5% (w/v) glycerol, 0.1% (w/v) CHAPS, 5 mM DTT]. After 2 h incubation at RT, the fluorescence intensities (FI) at 520 nm (acceptor) and 620 nm (donor reference) after excitation at 340 nm were recorded on a Tecan Infinite F200 (Tecan Group Ltd., Männedorf, Switzerland). FI520nm was divided by FI620nm and multiplied with 10,000 giving a dimensionless HTRF signal. Recruitment of coactivator-derived peptides to the PPARγ-LBD was validated with increasing concentrations of rosiglitazone. Recruitment of CBP was referenced to recruitment in response to 1 μM rosiglitazone (∼EC80) and reported as relative coactivator recruitment.
We induced this post-translational modification by short-term treatment of the differentiated cells with the cytokine TNFα, generating a pro-inflammatory milieu. […] For this, we used an assay system in which the recruitment of the fluorescence-tagged PPARγ coactivator CBP to the PPARγ-LBD was assessed by time-resolved FRET technique in presence and absence of rosiglitazone.

The next assay concerns 3T3-L1 cells. The assay can be described thus: WST-1 assay (mitochondrial activity) in differentiating 3T3-L1 cells. Type of assay: cell-based, murine. Particulars: 48 h with differentiation cocktail. As for the experimental part: For measurement of cell proliferation, 3T3-L1 cells were seeded in 24-well plates (0.55 × 10^5/well) instead of 6-wells and the differentiation was carried out as described in the section ‘Adipocyte differentiation’. After 2 days of incubation with the differentiation cocktail with or without the PPARγ agonists, WST-1 reagent (Roche Diagnostic GmbH, Mannheim, Germany) was added (1:10) to the supernatant of the differentiating cells. Then, the cells were further incubated for 2 h at 37°C, 5% CO2 to allow color development. After this, cell supernatant absorbance was measured (λabs = 450 nm) and corrected to a reference wavelength (λabs = 690 nm) with an Infinite F200 plate reader (Tecan Group Ltd., Männedorf, Switzerland). After this, background absorbance was subtracted from all measurements and values were normalized to the differentiated control receiving the differentiation cocktail without addition of a PPARγ agonist (w/o).
In addition to lipid accumulation, mitochondrial activity of 3T3-L1 cells during differentiation was investigated by the turnover of the tetrazolium salt WST-1 into a formazan dye. This provides not only further information on the metabolic capacity of the cells after differentiation but can also indicate toxicity of compounds. For this, 3T3-L1 cells were treated with the differentiation cocktail in the presence or absence of PPARγ agonists for 48 h. After this, WST-1 turnover as a measure for mitochondrial activity was assessed (Figure 2C).

The target in assay [2] is T3, human PPARγ ligand binding domain (Homo sapiens, UniProt P37231).
T3 sequence (P37231 238-503 limits assumed): T2 sequence (P37231 238-503 limits assumed)
In words: PPAR reporter gene assay (Gal4 hybrid, PPARγ). Particulars: for Emax: read-out: PPARγ maximal activation, HEK-293T, relative to pioglitazone (1 μM).
Description: HEK-293T cells were seeded in 96-well plates (2.5 × 10^4 cells/well) and were allowed to adhere overnight. Before transfection, medium was changed to Opti-MEM without supplements. Transient plasmid transfection was carried out using Lipofectamine LTX reagent (Invitrogen, Carlsbad, CA, United States) according to the manufacturer’s protocol with pFR-Luc (Stratagene, La Jolla, CA, United States), pRL-SV40 (Promega, Fitchburg, MA, United States) and pFA-CMV-PPAR-LBD ([Rau et al., 2006]). 5 h after transfection, medium was changed to Opti-MEM supplemented with penicillin (100 U/mL) and streptomycin (100 μg/mL), now additionally containing 0.1% DMSO and the respective test compound or 0.1% DMSO alone as untreated control. Each concentration was tested in triplicates and each experiment was repeated independently at least four times. Following overnight (12–16 h) incubation with the test compounds, cells were assayed for luciferase activity using the Dual-Glo^TM Luciferase Assay System (Promega, Fitchburg, MA, United States) according to the manufacturer’s protocol. Luminescence was measured with an Infinite M200 luminometer (Tecan Group Ltd., Männedorf, Switzerland). Normalization of transfection efficiency and cell growth was done by division of firefly luciferase data by renilla luciferase data and multiplying the value by 1000 resulting in relative light units (RLU). Fold activation was obtained by dividing the mean RLU of a test compound at a respective concentration by the mean RLU of untreated control. Relative activation was obtained by dividing the fold activation of a test compound at a respective concentration by the fold activation of the respective PPARα, γ or δ full agonist GW-7647, pioglitazone or L165,041 at 1 μM. EC50 and standard deviation were calculated with the mean relative activation values of at least four independent experiments by SigmaPlot 10.0 (Systat Software GmbH, Erkrath, Germany) using a four parameter logistic regression.
For this, a hybrid receptor construct containing the respective human PPAR ligand binding domain and hinge region fused to the DNA binding domain of the yeast nuclear receptor Gal4 and a Gal4-responsive firefly luciferase construct were co-transfected into HEK-293T cells together with a plasmid constitutively expressing Renilla luciferase for normalization of transfection efficiency and cell growth. Activation of the PPAR isoforms was compared to 1 μM of the well characterized agonists GW7647, L165,041, and pioglitazone for PPARα, δ, and γ, respectively.

The target in assay [3] is T4, human PPARδ ligand binding domain (Homo sapiens, UniProt Q03181).
T4 construct: expressed in transfected cells; host or cells: HEK-293T
T4 sequence (Q03181 211-439 limits assumed): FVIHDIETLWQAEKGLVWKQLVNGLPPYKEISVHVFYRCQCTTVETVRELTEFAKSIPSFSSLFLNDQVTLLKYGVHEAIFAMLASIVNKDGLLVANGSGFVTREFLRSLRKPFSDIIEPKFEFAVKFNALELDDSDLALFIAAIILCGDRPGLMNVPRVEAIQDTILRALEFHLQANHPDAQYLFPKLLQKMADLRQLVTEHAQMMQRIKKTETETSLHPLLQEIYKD
The assay can be described thus: PPAR reporter gene assay (Gal4 hybrid, PPARδ). It is filed as cell-based. Particulars: HEK-293T, reference L165,041 1 μM, tested up to 10 μM.
Description: HEK-293T cells were seeded in 96-well plates (2.5 × 10^4 cells/well) and were allowed to adhere overnight. Before transfection, medium was changed to Opti-MEM without supplements. Transient plasmid transfection was carried out using Lipofectamine LTX reagent (Invitrogen, Carlsbad, CA, United States) according to the manufacturer’s protocol with pFR-Luc (Stratagene, La Jolla, CA, United States), pRL-SV40 (Promega, Fitchburg, MA, United States) and pFA-CMV-PPAR-LBD ([Rau et al., 2006]). 5 h after transfection, medium was changed to Opti-MEM supplemented with penicillin (100 U/mL) and streptomycin (100 μg/mL), now additionally containing 0.1% DMSO and the respective test compound or 0.1% DMSO alone as untreated control. Each concentration was tested in triplicates and each experiment was repeated independently at least four times. Following overnight (12–16 h) incubation with the test compounds, cells were assayed for luciferase activity using the Dual-Glo^TM Luciferase Assay System (Promega, Fitchburg, MA, United States) according to the manufacturer’s protocol. Luminescence was measured with an Infinite M200 luminometer (Tecan Group Ltd., Männedorf, Switzerland). Normalization of transfection efficiency and cell growth was done by division of firefly luciferase data by renilla luciferase data and multiplying the value by 1000 resulting in relative light units (RLU). Fold activation was obtained by dividing the mean RLU of a test compound at a respective concentration by the mean RLU of untreated control. Relative activation was obtained by dividing the fold activation of a test compound at a respective concentration by the fold activation of the respective PPARα, γ or δ full agonist GW-7647, pioglitazone or L165,041 at 1 μM. EC50 and standard deviation were calculated with the mean relative activation values of at least four independent experiments by SigmaPlot 10.0 (Systat Software GmbH, Erkrath, Germany) using a four parameter logistic regression. […]

Values joined by “and” are separate entries in the source; they are usually repeats but may differ in a detail not shown here. Equal values may be shown once. “Also recorded” adds a separate entry of the source.

Description for sEH (HEP-G2): Quantification of cellular sEH metabolic activity was performed as described by [Zha et al. (2014)]. For this, HEP-G2 cells were harvested, washed twice with PBS and sonicated in PBS for disruption of cell integrity. Then, 1 μg of total cell homogenate diluted in 100 μl of PBS containing 0.1 mg/ml BSA was incubated with the compounds or vehicle for 15 min at 37°C. After this, 25 ng (±)14(15)-EET-d11 (Cayman Chemical, Ann Arbor, MI, United States) were added per sample and the incubation was continued for additional 10 min at 37°C. A blank was performed using PBS (containing 0,1 mg/mL BSA). The reactions were stopped by adding 100 μL of ice cold methanol. After centrifugation (2000 rpm, 4°C, 5 min), supernatants were analyzed by LC-MS/MS and the amounts of (±)14(15)-EET-d11 and the corresponding (±)14(15)-DHET-d11 were determined.
14(15)-EET-d11 and 14(15)-DHET-d11 content of the extracted samples were analyzed employing liquid chromatography tandem mass spectroscopy (LC-MS/MS). The LC/MS-MS system comprised an API 5500 QTrap (Sciex, Darmstadt, Germany), equipped with a Turbo-V-source operating in negative ESI mode, an Agilent 1200 binary HPLC pump and degasser (Agilent, Waldbronn, Germany) and an HTC Pal autosampler (Chromtech, Idstein, Germany) fitted with a 25 μL LEAP syringe (Axel Semrau GmbH, Sprockhövel, Germany). High purity nitrogen for the mass spectrometer was produced by a NGM 22-LC/MS nitrogen generator (cmc Instruments, Eschborn, Germany). All substances were obtained from Cayman Chemical, Ann Arbor, MI, United States. Stock solutions with 2,500 ng/mL of both analytes were prepared in methanol. Working standards were obtained by further dilution with a concentration range of 0.1–250 ng/mL for 14(15)-EET-d11 and 14(15)-DHET-d11. Sample extraction was performed with liquid–liquid-extraction. Therefore, 150 μL of matrix homogenates were gently mixed with 20 μL of internal standard [14(15)-EET and 14(15)-DHET all with a concentration of 100 ng/ml in methanol], and were extracted twice with 600 μL of ethyl acetate. Samples for standard curve and quality control were prepared similarly, instead of 150 μL of matrix homogenates, 150 μL PBS were added. Further 20 μL methanol, 20 μL working standard and 20 μL internal standard were added. The organic phase was removed at a temperature of 45°C under a gentle stream of nitrogen. The residues were reconstituted with 50 μL of methanol/water/(50:50, v/v), centrifuged for 2 min at 10,000 g and then transferred to glass vials (Macherey-Nagel, Düren, Germany) prior to injection into the LC-MS/MS system. For the chromatographic separation a Gemini NX C18 column and pre-column were used (150 mm × 2 mm i.d., 5 μm particle size and 110 Å pore size from Phenomenex, Aschaffenburg, Germany). A linear gradient was employed at a flow rate of 0.5 mL/min mobile phase with a total run time of 17.5 min. Mobile phase was A water/ammonia (100:0.05, v/v) and B acetonitrile/ammonia (100:0.05, v/v). The gradient started from 85% A to 10% within 12 min. This was held for 1 min at 10% A. Within 0.5 min the mobile phase shifted back to 85% A and was held for 3.5 min to equilibrate the column for the next sample. The injection volume of samples was 20 μL. Quantification was performed with Analyst Software V 1.5.1 (Sciex, Darmstadt, Germany) employing the internal standard method (isotope- dilution mass spectrometry). Ratios of analyte peak area and internal standard area (y-axis) were plotted against concentration (x-axis) and calibration curves were calculated by least square regression with 1/concentration^2 weighting.

As for `CC(C)(O)c1ccccc1CC[C@@H](SCC1(CC(=O)O)CC1)c1cccc(/C=C/c2ccc3ccc(Cl)cc3n2)c1` [Montelukast, montelukast], the IC50 against sEH (HEP-G2) is 1.9 µM and 1.95 µM. In addition, the “Induction of CBP recruitment by the compound itself” value in assay [1] is listed as “did not induce CBP recruitment itself in concentrations up to 20 μM”. Further, the “Antagonism of rosiglitazone induced CBP recruitment” value in assay [1] (presence of rosiglitazone (1 μM)) was “weakly antagonized the rosiglitazone induced CBP recruitment in concentrations above 3 μM”. The “WST-1 turnover (mitochondrial activity) versus w/o control” value with 3T3-L1 cells (10 μM) is recorded as “over threefold”. For the same molecule, the Emax in assay [2] (HEK-293T) was 21.9%. Besides, the “PPARδ EC50” value in assay [3] is “i.a. @ 10 μM”.

With `COc1cc(C(=O)NS(=O)(=O)c2ccccc2C)ccc1Cc1cn(C)c2ccc(NC(=O)OC3CCCC3)cc12` [Zafirlukast, zafirlukast], the IC50 is 0.8 µM and 0.82 µM on sEH (HEP-G2); 4.7 µM in assay [1] (rosiglitazone 1 μM, after 2 h, read-out: IC50 for antagonism of rosiglitazone induced CBP recruitment). Besides, the “Induction of CBP recruitment by the compound itself” value in assay [1] is on record as “did not induce CBP recruitment itself”. For the same molecule, the “WST-1 turnover (mitochondrial activity) versus w/o control” value with 3T3-L1 cells (1 μM) is reported as “threefold”; in the assay with 3T3-L1 cells (5 and 10 μM) it was “comparable to the w/o control; also recorded: had no influence on mitochondrial activity”. Moreover, the EC50 in assay [2] was found to be 2.49 ± 0.45 µM. In assay [2] (HEK-293T), the Emax is about 150%. The PPARγ maximal activation in assay [2] (HEK-293T, relative to pioglitazone (1 μM)) was 148 ± 15%. Further, the “PPARδ EC50” value in assay [3] is recorded as “i.a. @ 10 μM”.
